From paper PMC4876372 (Scientific Reports, 2016)
Read-outs that look alike come from different tables or passages of the source.

Columns and labels:
[1] = biological target: T1, His-tagged human recombinant DCTPP1 protein (Homo sapiens, UniProt Q9H773); test: DCTPP1 enzyme assay; type: biochemical; settings: at 100 μM
T1 construct: His; purchased ATGen
T1 sequence (Q9H773 1-170): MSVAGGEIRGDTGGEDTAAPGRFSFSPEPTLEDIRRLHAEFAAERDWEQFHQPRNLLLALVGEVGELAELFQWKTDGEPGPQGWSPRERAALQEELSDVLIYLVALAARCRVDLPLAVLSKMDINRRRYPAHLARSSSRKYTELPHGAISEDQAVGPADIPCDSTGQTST
Experimental: (§1) Likewise, the enzymatic activities of ITPA and DCTPP1 were measured using a PPiLight Inorganic Pyrophosphate Assay kit. For the ITPA enzyme assay, we used ITPA assay buffer (100 mM Tris-acetate, 50 mM Mg(OAc)2, 0.005% Tween-20, and 2 mM DTT, pH 7.5), His-tagged human recombinant ITPA protein (5 nM; ProSpec), and ITP (25 μM). For the DCTPP1 enzyme assay, we used DCTPP1 assay buffer (100 mM Tris-acetate, 100 mM NaCl, 10 mM Mg(OAc)2, 0.005% Tween-20, and 2 mM DTT, pH 7.5), His-tagged human recombinant DCTPP1 protein (50 nM; ATGen), and deoxycytidine triphosphate (dCTP; 50 μM).
(§2) To exclude false positive compounds that inhibit PPi detection, the effects of test compounds on 10 μM Na4P2O7-induced luciferase activity were examined.

HeLa cells = test: Cell cycle analysis (propidium iodide flow cytometry); type: cell-based, human; settings: 24 h, HeLa cells (Ctrl 0.9%)
Experimental: The HeLa cells were seeded in 12-well plates and treated with test compounds for the indicated time. Cells were harvested, washed with PBS, and incubated in propidium iodide (PI) solution containing 50 µg/mL propidium iodide, 0.1% sodium citrate, 0.2% Nonidet P-40, and 0.25 µg/mL RNase A (Nacalai Tesque) for 30 mi n in the dark.
Cellular DNA content was analyzed by fluorescence-activated cell sorting using a Cytomics FC500 (Beckman Coulter). […]

[2] = system: 8-oxo-dG levels in DNA of HeLa cells; test: 8-oxo-dG immunofluorescence; type: cell-based, human; settings: 20 h, NPD compounds 100 μM, TH287 3 and 10 μM
Experimental: Human cancer cell lines HeLa (cervical cancer), MIA PaCa-2 (pancreatic cancer), A431 (epidermoid carcinoma), and human embryonic kidney derived cell line HEK293T were cultured in Dulbecco’s Modified Eagle’s Medium (DMEM; Invitrogen) containing 10% fetal bovine serum (FBS), penicillin G (50 units/mL) and streptomycin (50 µg/mL). Human cancer cell lines Panc-1 (pancreatic cancer) and Jurkat (T cell lymphoma) were cultured in RPMI (Gibco) containing 10% FBS, penicillin G (50 units/mL) and streptomycin (50 µg/mL). Human osteosarcoma cell line MG-63, mouse embryonic fibroblast NIH3T3 cells and its transformant NIH3T3/KRAS cells1 were cultured in DMEM (Sigma-Aldrich) containing 10% calf serum, glutamine (0.3 g/L), penicillin G (50 units/mL), and streptomycin (50 µg/mL). All cell lines were incubated at 37 °C in a humidified atmosphere containing 5% CO2. […]
The HeLa cells were seeded on glass coverslips in 12-well plates, cultured overnight, and treated with test compounds for the indicated time. For 8-oxo-dG, cells were fixed sequentially in 3.7% formalin for 10 min and methanol at -20 °C for 10 min, and then permeabilized in 0.5% Triton X-100 in PBS at room temperature for 5 min. After blocking with 0.5% BSA in PBS at room temperature for 30 min, cells were incubated sequentially with a primary antibody against 8-oxo-dG (5 µg/mL, MOG-020; Japan Institute for the Control of Aging) and with Alexa Fluor 488-conjugated secondary antibody (1:400, Life Technologies) under the same conditions. After a quick rinse in PBS, DNA was counterstained with 0.1 µg/mL 4′,6-diamidino-2-phenylindole (DAPI) in PBS at room temperature for 10 min. Images were analyzed with a fluorescence microscope (BX60, Olympus).

[3] = biological target: T2, MTH1 in intact HeLa cells (Homo sapiens, UniProt P36639); test: Target engagement assay (CETSA); type: cell-based; settings: 300 μM, 1 h
T2 construct: endogenous in cells; host or cells: HeLa
Experimental: To analyze the interaction between small-molecule ligands and their target proteins in intact cells, a cellular thermal shift assay (CETSA) was performed as described previously with minor modifications. […] After treatment, cells were collected with trypsin and resuspended in Tris-buffered saline (TBS). The cell suspension was aliquoted into four polymerase chain reaction (PCR) tubes and heated at 45, 50, 55, or 60 °C for 5 min. Subsequently, cells were lysed by three repeated freeze-thaw cycles using liquid nitrogen. Precipitated proteins were separated from the soluble fraction by centrifugation at 17,000 × g for 20 min. Soluble proteins collected in the supernatant were subjected to sodium dodecyl sulfate polyacrylamide gel electrophoresis (SDS-PAGE) and transferred to a polyvinylidene difluoride (PVDF) membrane (Millipore) for western blot analysis. […] Santa Cruz Biotechnology) and a horseradish peroxidase–labeled secondary antibody (Vector Laboratories) in sequence. They were then visualized with Fusion Solo S (Vilber Lourmat) using a Super Signal West Pico Chemiluminescence Substrate (Pierce). After detection of MTH1 by western blot, proteins on the membrane were visualized by staining with Coomassie brilliant blue (CBB).

[4] = biological target: T3, His-tagged human recombinant MTH1 protein (Homo sapiens, UniProt P36639); test: MTH1 enzyme assay (PPiLight pyrophosphate detection); type: biochemical; settings: for IC50: MTH1 2 nM; for Ki: Dixon plot; for manner of MTH1 inhibition: with respect to 8-oxo-dGTP and 2-OH-dATP, Lineweaver-Burk
T3 construct: His; purchased ProSpec
Experimental: An MTH1 enzyme assay was performed as described previously with minor modifications. Briefly, test compounds were dissolved in an assay buffer [100 mM Tris-acetate, 40 mM NaCl, 10 mM Mg(OAc)2, 0.005% Tween-20, and 2 mM dithiothreitol (DTT), pH 7.5] containing His-tagged human recombinant MTH1 protein (2 nM; ProSpec). […] Relative MTH1 activity was measured by monitoring the pyrophosphate (PPi) generated through MTH1-catalyzed nucleotide triphosphate hydrolysis. The luciferase-mediated luminescence signal was recorded for 30 min using a luminometer (Molecular Devices).

[5] = biological target: T4, His-tagged human recombinant ITPA protein (Homo sapiens, UniProt Q9BY32); test: ITPA enzyme assay; type: biochemical; settings: at 100 μM
T4 construct: His; purchased ProSpec
Experimental: as §1, §2

[6] = substrate 2-OH-dATP (8.3 μM), read-out: IC50 of MTH1 inhibitory activity, 2-OH-dATP
[7] = substrate 2-OH-dATP, read-out: Ki for 2-OH-dATP
[8] = substrate 8-oxo-dGTP, read-out: Ki for 8-oxo-dGTP

| Compound | effect on enzymatic activity of DCTPP1 [1] | sub-G1 cell population (HeLa cells; 100 μM) | sub-G1 cell population (HeLa cells; 200 μM) | accumulation of 8-oxo-dG [2] | thermal stabilization of cellular MTH1 [3] | IC50 [4, 6] | Ki [4, 7] | Ki [4, 8] | manner of MTH1 inhibition [4] | effect on enzymatic activity of ITPA [5] | IC50 ([4]; substrate 8-oxo-dGTP (13.2 μM), read-out: IC50 of MTH1 inhibitory activity, 8-oxo-dGTP) |
| --- | --- | --- | --- | --- | --- | --- | --- | --- | --- | --- | --- |
| CC1(C)CC2CC(C)(CN2c2ncnc3[nH]cnc23)C1 (stereo not drawn) [NPD7155] | did not affect | 4.9% | 9.0% | did not induce the significant accumulation | considerably stabilized | 380 ± 160 nM | 180 ± 30 nM | 100 ± 40 nM | competitive | did not affect |  |
| Nc1nc(NCCc2ccccc2)c2nc[nH]c2n1 [NPD9948] | did not affect | 8.2% | 19% | did not induce the significant accumulation | considerably stabilized | 500 ± 210 nM | 220 ± 40 nM | 130 ± 50 nM | competitive | did not affect | 290 ± 50 nM |
